Source: US20050107338A1, “Nutritional supplement enhancing mitochondrial function” (priority 2003, published 2005)

Tests used:
[1] = Age-related hearing loss in subjects treated separately with the compounds; assay type: in vivo; settings: subjects treated separately with each compound
COX and SDH = COX and SDH levels in mitochondria of dosed rats; assay type: in vivo; settings: daily dosing per Table 2, after one month, COX and SDH averaged, vs control group 7
Text: A group of 154 rats are evenly divided between a control group and six study groups, resulting in 22 animals per group.
The change from baseline relative to the last study month in the levels of COX and SDH is compared among the seven study groups using one-way analysis of variance (ANOVA). The Dunnett t-test procedure is used to compare the control group to each of the six treatment groups. As a secondary analysis to evaluate for trends across time, repeated measures of ANOVA are to be used to compare the groups regarding the change in the COX and SDH levels over the three-month time intervals. […]
The assay for SDH measures the reduction of 2,6-dichlorophenolindophenol (DCPIP) when coupled to […] reduction of decylubiquinone (DB), monitoring the absorbance at 600 minus […] (extinction coefficient 19.1 mM^−1cm^−1) (Singer T P, 1976). The reduction of DCPIP is measured at 600 minus 520 nm in a 1 ml cuvette at 30° C. […] Antimycin A (2 μg/ml), rotenone (2 μg/ml), KCN (2 mM), and 50 μM DCPIP are added to the sample and the blank rate is recorded for 1 minute. The reaction is initiated by the addition of 50 uM DB and change in absorbance is monitored for 3 minutes.
The activity of cytochrome-c oxidase (COX) is measured by following the oxidation of reduced cytochrome c at 550 minus 540 nm (extinction coefficient 19.0 mM^−1 cm^−1) (Errede B, et al. 1996). […]

complex III = target: T1, complex III (Rattus norvegicus, UniProt P00159); settings: by competition with coenzyme Q; cited from earlier work
T1 construct: decrease complex III activity in rat brain; host or cells: rat brain (mitochondria)

[2] = system: mitochondrial transcripts; settings: pretreatment of senescent rats; time and dose-dependent; cited from earlier work

## O=C(O)CCCCC1CCSS1 (stereo not shown) [Study group 1, lipoic acid]
[1]
  age-related hearing loss: improvement
COX and SDH
  increase in COX and SDH relative to the control group: 10%

## CC(=O)N[C@@H](CS)C(=O)O [Study group 2, N-acetyl cysteine, reference compound]
COX and SDH
  increase in COX and SDH relative to the control group: 15%

## Oc1ccc(C=Cc2cc(O)cc(O)c2)cc1 [Study group 3, resveratrol]
[1]
  age-related hearing loss: improvement
Complex III
  complex III activity in rat brain: decrease

## CC(=O)O[C@H](CC(=O)[O-])C[N+](C)(C)C [acetyl-L-carnitine]
[1]
  age-related hearing loss: improvement
[2]
  levels of mitochondrial transcripts: bring back the levels of mitochondrial transcripts to adult levels
